Assays:
IKKα = biological target: T1, IKKα (Homo sapiens, UniProt O15111); assay: in-house DELFIA kinase assay, IKKα; type: biochemical
T1 sequence (O15111 1-745): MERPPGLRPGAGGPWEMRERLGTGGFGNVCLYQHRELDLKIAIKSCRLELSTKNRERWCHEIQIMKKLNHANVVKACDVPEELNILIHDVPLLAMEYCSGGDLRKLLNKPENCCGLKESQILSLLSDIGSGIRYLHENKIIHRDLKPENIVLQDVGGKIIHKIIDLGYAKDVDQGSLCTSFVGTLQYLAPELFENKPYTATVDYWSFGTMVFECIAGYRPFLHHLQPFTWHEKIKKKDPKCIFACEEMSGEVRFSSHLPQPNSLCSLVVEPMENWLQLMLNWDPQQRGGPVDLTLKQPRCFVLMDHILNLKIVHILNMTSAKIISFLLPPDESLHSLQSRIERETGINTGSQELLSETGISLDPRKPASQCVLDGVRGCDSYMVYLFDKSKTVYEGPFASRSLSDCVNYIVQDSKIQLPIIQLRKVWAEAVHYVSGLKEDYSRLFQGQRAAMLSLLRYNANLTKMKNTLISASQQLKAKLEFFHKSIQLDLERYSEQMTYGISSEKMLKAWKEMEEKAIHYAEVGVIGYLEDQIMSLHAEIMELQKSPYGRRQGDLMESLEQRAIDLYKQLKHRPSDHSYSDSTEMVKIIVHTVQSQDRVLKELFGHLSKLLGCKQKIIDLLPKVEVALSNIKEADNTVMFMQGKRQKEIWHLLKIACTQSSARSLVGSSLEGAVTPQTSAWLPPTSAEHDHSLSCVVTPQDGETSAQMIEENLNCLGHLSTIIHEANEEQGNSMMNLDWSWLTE

IKKβ = biological target: T2, IKKβ (Homo sapiens, UniProt O14920); assay: in-house DELFIA kinase assay, IKKβ; type: biochemical
T2 sequence (O14920 1-756): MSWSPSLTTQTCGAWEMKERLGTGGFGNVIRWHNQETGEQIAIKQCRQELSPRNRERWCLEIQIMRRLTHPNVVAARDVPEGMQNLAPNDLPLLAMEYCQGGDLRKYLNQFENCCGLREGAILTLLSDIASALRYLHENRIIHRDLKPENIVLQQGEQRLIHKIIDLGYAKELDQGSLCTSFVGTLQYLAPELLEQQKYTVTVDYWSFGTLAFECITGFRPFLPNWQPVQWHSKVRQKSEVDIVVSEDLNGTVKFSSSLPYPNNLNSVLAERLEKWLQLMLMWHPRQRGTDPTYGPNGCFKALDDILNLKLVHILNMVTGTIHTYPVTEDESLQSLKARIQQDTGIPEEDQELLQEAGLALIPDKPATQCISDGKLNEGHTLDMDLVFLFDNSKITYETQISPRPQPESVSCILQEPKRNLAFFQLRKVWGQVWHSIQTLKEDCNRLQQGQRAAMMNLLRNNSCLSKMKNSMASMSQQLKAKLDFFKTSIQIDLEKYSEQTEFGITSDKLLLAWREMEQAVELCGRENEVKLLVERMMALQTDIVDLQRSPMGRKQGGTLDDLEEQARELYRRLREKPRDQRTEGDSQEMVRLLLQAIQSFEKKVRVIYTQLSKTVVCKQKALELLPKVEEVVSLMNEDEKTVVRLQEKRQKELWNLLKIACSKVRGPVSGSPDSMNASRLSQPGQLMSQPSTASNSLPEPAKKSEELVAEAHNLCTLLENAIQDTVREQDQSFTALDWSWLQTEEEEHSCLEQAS

Turbidimetric solubility = type: physicochemical
[1] = in vivo murine PK in CD1 mice; parameters: species or system mouse; details: 10 mg/kg, mean
Description: […] Prior formulation/solubility assessment was performed in routine excipients e.g., DMSO: cyclodextrin or HMPC/Tween 80 . Intravenous time points were taken at 5 min, 15 min, 30 min, 1, 2, 4, 8, and 24 hours and intraperitoneal time points were taken at 15 min, 30 min, 1, 2, 4, 6, 8, and 24 hours. Blood samples were prepared by protein precipitation with methanol or acetonitrile containing internal standard and then measured quantitative bioanalysis by LC-MS/MS.

Row | Structure (SMILES) | Ki (IKKα) | IKKβ inhibition, in words (IKKβ) | Ki (IKKβ) | solubility, in words (Turbidimetric solubility) | Cmax ([1]; I.P.) | F ([1]; I.P.) | Terminal t1/2 ([1]; I.P.) | Tmax ([1]; I.P.) | Clearance ([1]; I.V.) | Terminal t1/2 ([1]; I.V.) | Vss ([1]; I.V.)
1 | Nc1n[nH]c2ccc(-c3ccnc4[nH]c(-c5cccc(OCc6ccccc6)c5)cc34)cc12 [5r SU1261, 5-(2-(3-(benzyloxy)phenyl)-1 H-pyrrolo[2,3-b]pyridin-4-yl)-1 H-indazol-3-amine] | 10 nM | lowest activity against IKKβ | 680 nM |  |  |  |  |  |  |  | 
2 | Nc1n[nH]c2ccc(-c3ccnc4[nH]c(-c5ccnc(OCc6ccccc6)c5)cc34)cc12 [6g SU1349, 5-(2-(2-(Benzyloxy)pyridin-4-yl)-1 H-pyrrolo[2,3-b]pyridin-4-yl)-1 H-indazol-3-amine] | 16 nM |  | 3350 nM | most soluble in the series that displayed selectivity | 199 ng/mL | 9.3% | 3.02 h | 0.44 h | 16.7 mL/min/kg | 4.18 h | 0.39 L/kg
